Data reported in publication PMC9049077, “Unveiling the anti-cancer mechanism for half-sandwich and cyclometalated Ir(III)-based complexes with functionalized α-lipoic acid” (RSC Advances, 2020).
Like-named read-outs stand apart in the source and are kept apart here.

Columns and labels:
[1] = test system: A549R cells (cisplatin-resistant A549); assay: MTT cytotoxicity assay, A549R; assay type: cell-based, human
Protocol: (§1) The α-lipoic acid (LA) and the functionalized N^∧N-LA ligand were also evaluated for comparison. […]
(§2) Cell lines and culture conditions
(§3) A549, A549R, MCF-7, A2780, HeLa and LO2 cells were obtained from Experimental Animal Center of Sun Yat-Sen University (Guangzhou, China). Cells were routinely cultured in DMEM (Dulbecco’s modified Eagle’s medium, Gibco BRL) or RPMI 1640 (Roswell Park Memorial Institute medium 1640, Gibco BRL) medium containing 10% FBS (fetal bovine serum, Gibco BRL), 100 μg/mL streptomycin, and 100 U/mL penicillin (Gibco BRL). The cells were cultured in tissue culture flasks in a humidified incubator (BB 150 CO2 incubator, Thermo Fisher Scientific, USA), which provided an atmosphere of 5% CO2 and 95% air at a constant temperature of 37 °C. Cisplatin-resistant A549R […]
(§4) cells were cultured in RPMI 1640 with additional cisplatin to maintain the drug resistance.
(§5) Cytotoxicity assay (MTT assay)
(§6) The cytotoxicity of LA, N^N-LA and complexes synthesized towards various cancer cell lines was determined by MTT assay. After plating 5000 cells per well in 96-well plates, the cells were pre-incubated in drug-free media for 24 h at 37 °C to grow to confluence. The complexes were dissolved in DMSO (1%, v/v) just before the experiments, and diluted with fresh media immediately. Then, cells were incubated with a series of different concentrations of the tested complexes for 44 h at 37 °C. After that, 20 μL of MTT solution (5 mg/mL) was added to each well, and the plates were incubated for an additional 4 h. The medium was carefully removed and 150 μL DMSO was added per well. The plates were incubated for 10 min with shaking. The absorbance at 595 nm was measured using a microplate reader (LabServ K3, Part of Thermo Fisher Scientific, USA). Each well was triplicated to gain the mean values. IC 50 values quoted are mean ± SEM. […]

[2] = test system: A2780 cells (epithelial ovarian carcinoma); assay: MTT cytotoxicity assay, A2780; assay type: cell-based
Protocol: as §1, §2, §3, §4, §5, §6

[3] = test system: MCF-7 cells (human breast carcinoma); assay: MTT cytotoxicity assay, MCF-7; assay type: cell-based
Protocol: as §1, §2, §3, §4, §5, §6

[4] = test system: A549 cells (human lung carcinoma); assay: MTT cytotoxicity assay, A549; assay type: cell-based
Protocol: as §1, §2, §3, §4, §5
(§7) The cytotoxicity of LA, N^N-LA and complexes synthesized towards various cancer cell lines was determined by MTT assay. After plating 5000 cells per well in 96-well plates, the cells were pre-incubated in drug-free media for 24 h at 37 °C to grow to confluence. The complexes were dissolved in DMSO (1%, v/v) just before the experiments, and diluted with fresh media immediately. Then, cells […]
(§8) that, 20 μL of MTT solution (5 mg/mL) was added to each well, and the plates were incubated for an additional 4 h. The medium was carefully removed and 150 μL DMSO was added per well. The plates were incubated for 10 min with shaking. The absorbance at 595 nm was measured using a microplate reader (LabServ K3, Part of Thermo Fisher Scientific, USA). Each well was triplicated to gain the mean values. IC 50 values quoted are mean ± SEM. […]

[5] = test system: LO2 cells (human normal liver); assay: MTT cytotoxicity assay, LO2; assay type: cell-based
Protocol: as §1, §2, §3, §4, §5, §6

[6] = test system: HeLa cells (human cervical carcinoma); assay: MTT cytotoxicity assay, HeLa; assay type: cell-based
Protocol: as §1, §2, §3, §4, §5, §7, §8

[7] = test system: HeLa cells (human cervical carcinoma); parameters: method as in earlier work; details: 24 h incubation; ref 29 (supplementary reference 9); cited from earlier work
[8] = test system: MCF-7 cells (human breast carcinoma); parameters: method as in earlier work; details: 24 h incubation; ref 29 (supplementary reference 9); cited from earlier work
[9] = test system: MCF-7 cells (human breast carcinoma); assay: MTT cytotoxicity assay, MCF-7; assay type: cell-based; details: 24 h incubation
[10] = test system: A549 cells (human lung carcinoma); parameters: method as in earlier work; details: 24 h incubation; ref 29 (supplementary reference 9); cited from earlier work
[11] = reported value; cited from earlier work
A549 cells = details: cited from earlier work
tested cancer cell lines = assay: MTT cytotoxicity assay, summary over the tested cell lines; assay type: cell-based; details: Homo sapiens, 48 h, read-out: IC50 over all tested cancer cell lines
Protocol: as §1, §2, §3, §4, §5
The cytotoxicity of LA, N^N-LA and complexes synthesized towards various cancer cell lines was determined by MTT assay. After plating 5000 cells per well in 96-well plates, the cells were pre-incubated in drug-free media for 24 h at 37 °C to grow to confluence. […] The absorbance at 595 nm was measured using a microplate reader (LabServ K3, Part of Thermo Fisher Scientific, USA). […]

[12] = Homo sapiens, A549, 48 h incubation

Compound | IC50 ([1]; 48 h incubation) | IC50 ([2]; 48 h incubation) | IC50 ([3]; 48 h incubation) | IC50 ([4]; 48 h incubation) | IC50 ([5]; 48 h incubation) | IC50 ([6]; 48 h incubation) | other results
Cc1ccnc(-c2cc(CNC(=O)CCCCC3CCSS3)ccn2)c1 (stereo not drawn) [N^∧N-LA] | > 200 µM | 84.5 ± 4.1 µM | 139 ± 2.2 µM | > 200 µM | 96 ± 6.7 µM | 67.5 ± 5 µM | 
N.N.[Cl][Pt][Cl] [cis-Pt, cisplatin, reference compound] | 17.9 ± 0.77 µM | 4.32 ± 0.25 µM | 8.7 ± 0.57 µM | 10.5 ± 0.63 µM | 3.97 ± 0.25 µM | 7.59 ± 0.46 µM | IC50 [7]: 20.2 ± 1.8 µM; IC50 [8]: 31.4 ± 3 µM; IC50 [9]: 23.5 ± 0.82 µM; IC50 ([4]; 24 h incubation): 22.4 ± 1.5 µM; IC50 [10]: 38.6 ± 0.9 µM; IC50 ([6]; 24 h incubation): 17.9 ± 0.47 µM
C(=NC(c1ccccc1)(c1ccccc1)c1ccccc1)c1ccccn1.Cc1c(C)c(C)[c-](C)c1C.F[P-](F)(F)(F)(F)F.[Cl-].[Ir+3] [[(η^5-Cp*)Ir(N^∧N)Cl]PF6, [(η^5-Cp*)Ir(N^∧N)Cl]PF6 (N^∧N = (triphenylmethyl)(pyridine-2-ylmethylene)amine)] |  |  |  |  |  |  | Hydrolysis rate constant [11]: 0.0084 min⁻¹; Cellular uptake in A549 cells (A549 cells): 4.5 ng per 10^6 cells
O=C(O)CCCCC1CCSS1 (stereo not drawn) [LA, α-lipoic acid] |  |  |  |  |  |  | IC50 [1, 12]: > 200 µM; IC50 ([2]; Homo sapiens, A2780, 48 h incubation): > 200 µM; IC50 ([3]; Homo sapiens, MCF7, 48 h incubation): > 200 µM; IC50 (tested cancer cell lines): > 200 µM; IC50 [4, 12]: > 200 µM; IC50 ([5]; Homo sapiens, L02, 48 h incubation): > 200 µM; IC50 ([6]; Homo sapiens, HeLa, 48 h incubation): > 200 µM
Cc1ccnc(-c2cc(CN)ccn2)c1.F[P-](F)(F)(F)(F)F.[Ir+3].[c-]1ccccc1-c1ccccn1.[c-]1ccccc1-c1ccccn1 [Ir-NH2, [Ir(C^∧N)2(N^∧N-NH2)]PF6] | 19 ± 0.59 µM | 8.08 ± 0.2 µM | 11.6 ± 0.48 µM | 11.2 ± 0.65 µM | 8.97 ± 0.55 µM | 21 ± 0.95 µM | 
